According to PubChem BioAssay (NCI):
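Test compounds were applied to cells in 96-well plates for 48 hours at 5 doses. Here, GI50 denotes the concentration required for 50% inhibition of growth. At the TGI there is no net growth.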

How the values were obtained:
Assay in all cases: growth of human tumour cells (NCI), 48 h
CAKI-1 renal = system: CAKI-1 renal
COLO 205 colon = system: COLO 205 colon
IGROV1 ovarian = system: IGROV1 ovarian
OVCAR-8 ovarian = system: OVCAR-8 ovarian
SK-OV-3 ovarian = system: SK-OV-3 ovarian
SW-620 colon = system: SW-620 colon
T-47D breast = system: T-47D breast
U251 CNS = system: U251 CNS
MCF7 breast = system: MCF7 breast
MDA-MB-435 = system: MDA-MB-435

Compound	TGI (CAKI-1 renal)	TGI (COLO 205 colon)	TGI (IGROV1 ovarian)	TGI (OVCAR-8 ovarian)	TGI (SK-OV-3 ovarian)	TGI (SW-620 colon)	TGI (T-47D breast)	TGI (U251 CNS)	TGI (MCF7 breast)	TGI (MDA-MB-435)	GI50 (CAKI-1 renal)	GI50 (COLO 205 colon)	GI50 (MCF7 breast)	GI50 (MDA-MB-435)	GI50 (OVCAR-8 ovarian)	GI50 (SK-OV-3 ovarian)	GI50 (SW-620 colon)	GI50 (T-47D breast)	GI50 (U251 CNS)
COc1cc2cc(C(=O)N3CC(CCl)c4c3cc(N)c3ccccc43)[nH]c2c(OC)c1OC (centres undefined)	< 0.01 µM	< 0.01 µM	0.0401 µM	< 0.01 µM	0.248 µM	> 100 µM	> 100 µM	0.0998 µM											
Cc1csc(/N=C\c2c(O)c3ccccc3oc2=O)n1	34.1 µM	> 100 µM	> 100 µM	> 100 µM	45.6 µM	> 100 µM		> 100 µM	> 100 µM	> 100 µM									
Cc1ccc2oc(=O)c(C(=O)Nc3nc(C45CC6CC(CC(C6)C4)C5)cs3)cc2c1	> 100 µM	> 100 µM	> 100 µM	> 100 µM		> 100 µM		> 100 µM	> 100 µM	> 100 µM									
CCOP(=O)(OCC)C(N)c1ccc(Cl)cc1 (centres undefined)	> 100 µM	> 100 µM	> 100 µM	> 100 µM		> 100 µM	> 100 µM	> 100 µM	> 100 µM	> 100 µM									
COc1ccc(N2C=Nn3c(nc4sc5c(c4c3=O)CCCC5)C2)cc1	> 100 µM	> 100 µM	> 100 µM	> 100 µM	> 100 µM	> 100 µM	> 100 µM	> 100 µM	> 100 µM	> 100 µM									
Cc1cc(S(=O)(=O)Nc2nc(N)nc(N(C)C)n2)c(SCC(=O)O)cc1Cl	> 10 µM	> 10 µM	> 10 µM	> 10 µM	> 10 µM	> 10 µM	> 10 µM	> 10 µM	> 10 µM										
CCOC(=O)c1sc2[n+](c1C)C(=O)/C(=C/c1ccc([N+](=O)[O-])cc1)S2	37.7 µM	68.7 µM		69.9 µM	64.6 µM	73.5 µM	77.2 µM	40.3 µM	62.6 µM	46.2 µM									
C=CCO[C@]1(CC=C)C(=O)C(=O)OC1C1COC(C)(C)O1 (some centres undefined)	41.9 µM	37.5 µM	> 100 µM	81.6 µM		35.4 µM	> 100 µM	> 100 µM	42 µM	> 100 µM									
CN(/N=C/c1ccnc2ccccc12)c1ccc(Cl)cc1[N+](=O)[O-]	> 100 µM	> 100 µM	> 100 µM	> 100 µM	> 100 µM	> 100 µM		> 100 µM	> 100 µM	> 100 µM									
S=C(c1c[nH]c2ccccc12)N1CCN(Cc2ccccc2)CC1	56.1 µM	31 µM	26.2 µM	43.7 µM	51.4 µM	31.6 µM		33.6 µM	46.7 µM	28.8 µM									
CC(=O)NC1=C[C@@H]([C@H]2COC(C)(C)O2)OC1=O	> 100 µM	> 100 µM	> 100 µM	> 100 µM	> 100 µM	> 100 µM		> 100 µM	> 100 µM										
COc1ccc(CN=C(N)N)c2ccccc12	> 100 µM	38 µM		> 100 µM	> 100 µM	> 100 µM	> 100 µM	74.7 µM	> 100 µM										
CCCCON1C[C@H](OC(C)=O)C(OC(C)=O)[C@H](OC(C)=O)C1 (some centres undefined)	> 100 µM	> 100 µM	> 100 µM	> 100 µM	> 100 µM		> 100 µM	> 100 µM	> 100 µM	> 100 µM									
Nc1nn2c(nc(N)c3c(N)[nH]nc32)c1N=Nc1ccc(Br)cc1	> 100 µM	> 100 µM	> 100 µM	> 97.1 µM	> 100 µM	> 100 µM		30.7 µM	> 100 µM	> 27.9 µM									
Cc1ccc(N(CC(=O)Nc2ccc(S(=O)(=O)N3CCC(N4CCCC4)CC3)cc2)S(=O)(=O)c2ccc(Cl)cc2)cc1	3.31 µM	3.39 µM		3.76 µM	3.29 µM	3.44 µM	3.91 µM	2.98 µM	3.6 µM	3.14 µM	1.65 µM	1.75 µM	1.6 µM	1.69 µM	1.86 µM	1.82 µM	1.66 µM	1.74 µM	1.56 µM
CC1C2(C)OC(=N)C(C#N)(C(c3cccc([N+](=O)[O-])c3)O2)C1(C#N)C#N (centres undefined)	24.4 µM	27.5 µM	> 100 µM	> 100 µM	> 100 µM	31.3 µM	35.9 µM	53.8 µM	50.2 µM										
c1csc(C[N+]23CN4CN(CN(C4)C2)C3)c1	59.5 µM	40.8 µM	70.2 µM	74.9 µM		90.7 µM		45.7 µM											
C=C(OC1C(C)=C2C(C1OC(=O)CCCCCCC)C(C)(OC(C)=O)CC(OC(=O)CCC)C1(O)C2OC(=O)C1(C)O)/C(C)=C/C (centres undefined)	0.0615 µM	0.101 µM	11 µM	5.98 µM	16.9 µM	2.05 µM		1.73 µM	0.191 µM		0.000475 µM	< 0.0001 µM			0.000243 µM		< 0.0001 µM		< 0.0001 µM
Nc1nc(N)c2cc(NCc3ccc(Cl)c(Cl)c3)ccc2n1	2.71 µM	2.6 µM				1.59 µM	3.28 µM	2.37 µM	2.75 µM	2.4 µM	1.37 µM	1.32 µM	1.36 µM	1.11 µM			0.431 µM	1.72 µM	1.12 µM
CC(=O)OC[C@@H](OC(C)=O)[C@H](OC(C)=O)[C@@H]1OC(C)(C)O[C@@H]1C1SCCCS1	> 100 µM	> 100 µM		> 100 µM	> 100 µM	> 100 µM	> 100 µM	> 100 µM	> 100 µM	> 100 µM									
CCOC(=O)CC1(c2cccc3ccccc23)OC(=O)c2ccccc21 (centres undefined)	> 100 µM	98.5 µM	> 100 µM	> 100 µM	> 100 µM	> 100 µM		> 100 µM											
